Reference: patent US8252337B2, “Charged mesoporous silica nanoparticle-based drug delivery system for controlled release and enhanced bioavailability” (National Health Research Institutes, priority 2008, dated 2012)

Assay: Saturated aqueous sulfasalazine solution
Assay type: physicochemical
Settings: in H2O
Procedure: Sulfasalazine-Loaded MSN-TA Samples: A saturated aqueous sulfasalazine solution was prepared by dissolving 0.5 g of sulfasalazine in 1 L of H2O, stirred for 6 h, and filtered through a […] cellulose acetate membrane to remove the residual solids. […] Sulfasalazine was adsorbed onto MSN-TA samples by adding 10 mg of MSN-TA samples into 10 mL of the above saturated sulfasalazine solution. The mixture was stirred at 800 rpm for 4 h. The particles were then washed with deionized water and centrifuged for 20 min at 12 000 rpm. The supernatant was analyzed with a UV-Vis spectrometer. The amount of Sulfasalazine adsorbed onto nanoparticles was determined by measuring the decrease in absorption at 360 nm. The loading percentage of sulfasalazine onto MSN-TA-4 was about 1.7%.

Compound: O=C(O)c1cc(/N=N/c2ccc(S(=O)(=O)Nc3ccccn3)cc2)ccc1O [sulfasalazine]
- pH of saturated sulfasalazine solution: 5.4
